Results as given in ChEMBL document CHEMBL1765058, “Structural basis for the interaction between carbonic anhydrase and 1,2,3,4-tetrahydroisoquinolin-2-ylsulfonamides” (J Med Chem, 2011).

Molecular target: Carbonic anhydrase 7 (Homo sapiens, UniProt P43166)
Test: Inhibition of human recombinant CAH7

Carbonic anhydrase 7, sequence (P43166 whole entry): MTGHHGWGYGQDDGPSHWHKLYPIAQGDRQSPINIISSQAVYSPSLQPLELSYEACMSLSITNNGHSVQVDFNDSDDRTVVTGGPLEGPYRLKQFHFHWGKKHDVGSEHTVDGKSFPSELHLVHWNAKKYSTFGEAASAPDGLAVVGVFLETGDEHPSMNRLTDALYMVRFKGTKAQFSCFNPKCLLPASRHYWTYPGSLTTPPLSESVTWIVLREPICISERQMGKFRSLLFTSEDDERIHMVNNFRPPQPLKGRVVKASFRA

COc1cc2c(cc1OC)C(C)N(S(N)(=O)=O)CC2 (stereo unspecified)
Ki: 6.4 nM
